We go through six compounds from patent publication US11951088B2, “Fatty acid analogs and their use in the treatment of conditions related to metabolic syndrome” (Epitracker, Inc., priority 2017, dated 2024).

Series [1] concerns 12 human primary cell-based systems. Description: BioMAP Diversity Plus panel, biomarker readouts. The settings on record: compared to C15:0-treated systems and non-treated controls; 740 nm and 2.2, 6.7 and 20 μM. The text has this:
This study examined and compared activities of a saturated free fatty acid (C15:0) and three substituents (2-methyl-, 2,2-dimethyl-, and 1-tetrazole-C15:0) across 12 human primary cell-based systems as part of DiscoverX's BioMAP Diversity Plus program. These systems are designed to model complex human tissue and disease biology of the vasculature, skin, lung, and inflammatory tissues. Quantitative measurements of biomarker activities across this broad panel, along with comparative analysis of biological activities of known bioactive agents were used to predict and compare the efficacy and function of the four compounds.
BioMAP panels consist of human primary cell-based systems designed to model different aspects of the human body in an in vitro format. The 12 systems in the Diversity PLUS panel allow test agent characterization in an unbiased way across a broad set of systems modeling various human disease states. BioMAP systems are constructed with one or more primary cell types from healthy human donors, with stimuli (such as cytokines or growth factors) added to capture relevant signaling networks that naturally occur in human tissue or pathological conditions. Vascular biology is modeled in both a Th1 (3C system) and a Th2 (4H system) inflammatory environment, as well as in a Th1 inflammatory state specific to arterial smooth muscle cells (CASM3C system). Additional systems recapitulate aspects of the systemic immune response including monocyte-driven Th1 inflammation (LPS system) or T cell stimulation (SAg system), chronic Th1 inflammation driven by macrophage activation (lMphg system) and the T cell-dependent activation of B cells that occurs in germinal centers (BT system). The BE3C system (Th1) and the BF4T system (Th2) represent airway inflammation of the lung, while the MyoF system models myofibroblast-lung tissue remodeling. Lastly, skin biology is addressed in the KF3CT system modeling Th1 cutaneous inflammation and the HDF3CGF system modeling wound healing.
Each test agent generates a signature BioMAP profile that is created from the changes in protein biomarker readouts within individual system environments. Biomarker readouts (7-17 per system) are selected for therapeutic and biological relevance, are predictive for disease outcomes or specific drug effects and are validated using agents with known mechanism of action (MoA). Each readout is measured quantitatively by immune-based methods that detect protein (e.g., ELISA) or functional assays that measure proliferation and viability. BioMAP readouts are diverse and include cell surface receptors, cytokines, chemokines, matrix molecules and enzymes.

Series [2] can be described thus: 24-hour plasma pharmacokinetics after single oral dose in rats. In kind it is in vivo. The following applies: for bioavailability: po.
The target of series [3] is T1, human PPAR-α (Homo sapiens, UniProt Q07869).
T1 sequence (Q07869 1-468): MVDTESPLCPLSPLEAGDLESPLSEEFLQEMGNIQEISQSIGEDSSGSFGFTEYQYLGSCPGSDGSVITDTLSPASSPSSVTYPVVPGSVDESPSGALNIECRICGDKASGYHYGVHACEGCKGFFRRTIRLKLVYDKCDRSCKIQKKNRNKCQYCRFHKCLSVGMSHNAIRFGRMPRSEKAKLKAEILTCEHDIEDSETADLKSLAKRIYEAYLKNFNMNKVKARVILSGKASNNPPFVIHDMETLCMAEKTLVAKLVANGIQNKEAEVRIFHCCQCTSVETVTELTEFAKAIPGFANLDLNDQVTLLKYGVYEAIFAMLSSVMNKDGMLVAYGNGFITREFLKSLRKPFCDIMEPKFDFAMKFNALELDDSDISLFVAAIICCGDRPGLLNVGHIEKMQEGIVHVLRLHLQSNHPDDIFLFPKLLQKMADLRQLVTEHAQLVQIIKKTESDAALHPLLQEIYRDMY
Kind of series: PathHunter NHR Protein Interaction assay, PPAR-α agonist activity (CHO cells).
Method: (§1) PPAR-α, PPAR-δ, and PPAR-γ agonist activities were measured using PathHunter Nuclear Hormone Receptor (NHR) Protein Interaction (Pro) assays (DiscoverX, Freemont, California). Briefly, Chinese hamster ovary (CHO) cell lines were used to monitor the activation of PPAR-α, PPAR-δ, and PPAR-γ in a homogenous, non-imaging assay format using Enzyme Fragment Complementation (EFC). The NHR Pro assay was based on detection of protein-protein interactions between activated, full length PPAR-α, PPAR-δ, and PPAR-γ proteins and a nuclear fusion protein containing Steroid Receptor Co-activator Peptide (SRCP) domains with one or more canonical LXXLL interaction motifs. PPAR-α, PPAR-δ, and PPAR-γ were tagged with the ProLink component of the EFC assay system, and the SRCP domain was fused to the enzyme acceptor component (EA) expressed in the nucleus. When bound by ligand, PPAR-α, PPAR-δ, or PPAR-γ migrated to the nucleus and recruited the SRCP domain, whereby complementation occurred, generating a unit of active β-Galactosidase (β-Gal) and production of chemiluminescent signal. […] Percentage activity was calculated using the following formula: % Activity=100%×(mean RLU of test sample−mean RLU of vehicle control)/(mean MAX control ligand−mean RLU of vehicle control).

In series [4] the target is T2, human PPAR-γ (Homo sapiens, UniProt P37231).
T2 sequence (P37231 1-505): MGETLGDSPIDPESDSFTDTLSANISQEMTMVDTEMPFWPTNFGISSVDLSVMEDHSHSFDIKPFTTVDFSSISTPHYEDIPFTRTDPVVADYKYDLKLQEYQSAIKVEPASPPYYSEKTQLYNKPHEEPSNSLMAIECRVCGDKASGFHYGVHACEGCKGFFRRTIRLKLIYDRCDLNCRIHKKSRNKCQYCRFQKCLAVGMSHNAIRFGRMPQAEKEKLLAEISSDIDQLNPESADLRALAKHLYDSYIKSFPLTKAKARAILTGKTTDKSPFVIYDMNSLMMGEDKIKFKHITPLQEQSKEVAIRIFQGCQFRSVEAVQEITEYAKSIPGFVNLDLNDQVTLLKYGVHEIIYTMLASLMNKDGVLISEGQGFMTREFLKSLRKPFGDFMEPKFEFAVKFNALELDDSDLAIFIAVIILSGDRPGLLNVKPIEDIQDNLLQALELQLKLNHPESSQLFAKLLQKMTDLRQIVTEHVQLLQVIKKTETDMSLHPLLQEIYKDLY
Kind of series: PathHunter NHR Protein Interaction assay, PPAR-γ agonist activity (CHO cells).
Method: as §1

Series [5] has as its target T3, human PPAR-δ (Homo sapiens, UniProt Q03181).
T3 sequence (Q03181 1-441): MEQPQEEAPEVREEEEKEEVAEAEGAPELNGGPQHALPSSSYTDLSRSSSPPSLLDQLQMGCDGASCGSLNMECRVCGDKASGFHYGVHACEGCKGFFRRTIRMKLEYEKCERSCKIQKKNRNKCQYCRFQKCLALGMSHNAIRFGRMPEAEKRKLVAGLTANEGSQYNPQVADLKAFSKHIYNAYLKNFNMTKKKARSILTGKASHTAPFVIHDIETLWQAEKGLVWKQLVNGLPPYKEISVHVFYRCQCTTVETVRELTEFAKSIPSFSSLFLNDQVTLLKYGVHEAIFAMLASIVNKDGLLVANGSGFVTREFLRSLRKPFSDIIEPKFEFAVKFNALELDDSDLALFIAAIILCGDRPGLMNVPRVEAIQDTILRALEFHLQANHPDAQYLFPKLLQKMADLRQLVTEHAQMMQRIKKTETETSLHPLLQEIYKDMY
Kind of series: PathHunter NHR Protein Interaction assay, PPAR-δ agonist activity (CHO cells).
Method: as §1

Series [6] concerns C57BL/6J mice fed a high fat diet. Description: diet-induced obese mice treated daily by gastric gavage for 12 weeks. In kind it is in vivo. The following applies: for Cholesterol / Glucose / IL-6 / Insulin / LDL-C / MCP-1 / TNF-α: Day 84, 6 h fasted. As to the method: Forty C57BL/6J mice were fed a high fat diet (HFD) (D12492, 60% kcals fat) for 8 weeks. Study mice were then divided into the following four groups of ten: vehicle controls, low dose C17:0-treated (5 mg/kg body weight), high-dose C17:0-treated (50 mg/kg body weight), and low-dose C15:0-treated (5 mg/kg body weight).
Table 1 provides comparisons of cardiometabolic effects in diet-induced obese mice treated daily with oral pentadecanoic acid (5 mg/kg BW), heptadecanoic acid (5 and 50 mg/kg BW) for 12 weeks compared to vehicle controls. “Results” values are based on 6 h fasted samples.

The mark [7] stands for this setting: Half Maximal Effective Concentration (EC50), PPAR-α, Table 5.
Where [8] appears, read: CHO, read-out: Maximum Response.

Where two headings read alike, the source gives them in different places.

Regarding `CCCCCCCCCCCCCC(C)C(=O)O` (stereo not drawn) [2-methyl-C15:0, 2-methylpentadecanoic acid], in series [1], the CD40 entry is “lower”, the ICAM-1 entry is recorded as “lower”, the IL-1α result is recorded as “lower” and the IL-8 result is reported as “lower”. Also, in series [1], the IP-10 result is “lower”, the IP-18 result is recorded as “lower”, the MCP-1 result was “lower” and the MIG entry was “lower”. Further, in series [1], the MMP-1 entry is reported as “lower”, the MMP-3 result is given as “lower”, the MMP-9 entry was “lower” and the PAI-1 entry is “lower”. In addition, in series [1], the VCAM-1 result is listed as “lower”, the eotaxin-3 result was “lower”, the “keratin 8/18” value is “lower” and the “secreted IgG” value is listed as “lower”. In series [2] (5 mg/kg single oral dose), this compound came in with a Cmin of 660 ng/mL and a Tlast of 24 h. Further, in series [2] (35 mg/kg single oral dose), the Cmin amounted to 3790 ng/mL and the Tlast came out at 24 h. Also, the exposure AUC(0-t) (commonly exposure summed from dosing to a finite time, without extrapolation to infinity) in series [2] (rat, 5 mg/kg single oral dose) turned out to be 28.4 µg·h/mL. Further, in series [2] (rat, 5 mg/kg single oral dose, deuterated form), the Cmax (usually the peak of the concentration-time curve) was found to be 3590 ng/mL. Also, in series [2] (rat, 35 mg/kg single oral dose), the AUC(0-t) worked out at 182 µg·h/mL. Moreover, the bioavailability in series [2] (rat, 5 mg/kg, 5 mg/kg single oral dose, estimate using an AUC of 15 for a 1 mg/kg IV arm, read-out: % F) was 37.8%. Besides, the bioavailability in series [2] (rat, 35 mg/kg, 35 mg/kg single oral dose, estimate using an AUC of 15 for a 1 mg/kg IV arm, read-out: % F) was 34.7%. Also, the bioavailability in series [2] (rat, 35 mg/kg, oral, rats, read-out: estimated plasma % F (bioavailability)) was about 35%.
As to `CCCCCCCCCCCCCC(=O)O` [C14:0, myristic acid], the EC50 is 8.35 µM in series [3] (EC50, PPAR-alpha, Table 4); 8.4 µM in series [3] (setting [7]); over 100 µM in series [4].
As to `CCCCCCCCCCCCCC(CC)C(=O)O` (stereo not drawn) [2-ethyl-C15:0, 2-ethylpentadecanoic acid], the EC50 in series [3] (setting [7]) turned out to be 1.2 µM; in series [5], 0.3 µM; in series [4], 51 µM. The “EC50 % improvement over FFA form” value in series [3] (PPAR-α, compared to free fatty acid form) is listed as 90%; in series [5] (PPAR-δ, compared to free fatty acid form) it was 89%; in series [4] (PPAR-γ, compared to free fatty acid form), over 49%. Besides, the “PPAR-γ agonist activity (in words)” value in series [4] (compared to the free fatty acid form) is “acquired PPAR-γ agonist activity”.
For `CCCCCCCCCCCCCC(C)(C)C(=O)O` [2,2-dimethyl-C15:0, 2,2-dimethylpentadecanoic acid], in series [1], the CD38 result is given as “lower”, the CD99 entry is “lower”, the ICAM-1 entry is listed as “lower” and the IL-1α entry is listed as “lower”. In series [1], the IL-8 entry is “lower”, the IP-10 result is reported as “lower”, the IP-18 result is “lower” and the MCP-1 entry is “lower”. Besides, in series [1], the MIG result is recorded as “lower”, the MMP-1 result is listed as “lower”, the MMP-3 entry is “lower” and the MMP-9 result is “lower”. In series [1], the PAI-1 result is reported as “lower”, the VCAM-1 entry is “lower”, the eotaxin-3 result is listed as “lower” and the “keratin 8/18” value is listed as “lower”. Further, the tissue factor entry in series [1] is on record as “lower”.
Take `CCCCCCCCCCCCCCCCC(=O)O` [C17:0, heptadecanoic acid]: in series [6] (12 weeks daily oral, C15:0 5 mg/kg, C17:0 5 and 50 mg/kg), the “metabolic syndrome compared to vehicle controls (in words)” value is listed as “trended toward attenuated metabolic syndrome”. In series [6] (5 mg/kg daily oral), this compound came in with a Cholesterol of 197 ± 31 mg/dL, a Glucose of 296 ± 23 mg/dL, an IL-6 of 42 ± 40 pg/mL and an Insulin of 7.4 ± 4.8 ng/mL. In series [6] (5 mg/kg daily oral), this compound registered an LDL-C of 9 ± 3 mg/dL, an MCP-1 of 86 ± 30 pg/mL and a TNF-α of 3.7 ± 1.9 pg/mL. In series [6] (50 mg/kg daily oral), this compound gave a Cholesterol of 187 ± 44 mg/dL, a Glucose of 282 ± 31 mg/dL, an IL-6 of 38 ± 32 pg/mL and an Insulin of 6.8 ± 3.5 ng/mL. Also, in series [6] (50 mg/kg daily oral), the LDL-C was 8 ± 3 mg/dL, the MCP-1 stood at 53 ± 32 pg/mL and the TNF-α turned out to be 1.5 ± 1.5 pg/mL. Besides, the EC50 in series [3] (EC50, PPAR-alpha, Table 4) is over 100 µM. Further, the EC50 in series [4] was over 100 µM.
Regarding `CCCCCCCCCCCCCCCC(=O)O` [C16:0, palmitic acid], the Emax in series [3] (setting [8]) was determined as 56.1%; in series [4] (setting [8]), 4.68%. Also, the EC50 in series [3] (EC50, PPAR-alpha, Table 4) is 27.3 µM; in series [3] (EC50, PPAR-alpha, Table 7), 27.3 µM; in series [3] (setting [7]) it was 27.3 µM; in series [4], over 100 µM; in series [4] (PPAR-gamma, Table 7) it was over 100 µM; in series [4] (read-out: Half Maximal Effective Concentration (EC50), PPAR-γ, Table 5), over 100 µM.
